Results on 18 compounds are retold here after patent US20240050428A1 (Cullgen (Shanghai), Inc., priority 2020, published 2024).

Like-named read-outs stand apart in the source and are kept apart here. A value given as a limit tells only on which side of the number the result lay.

One test deals with MOLM-13 cells. The test is described as follows: Cell viability assay (CellTiter-Glo) in MOLM-13 cells, alone or with gilteritinib. It counts as cell-based. The conditions noted are these: MOLM-13 cells, three days, CellTiter-Glo. Background: In ATP-based viability assays light output follows the ATP content of the culture.
The next test relates to MV4;11 cells. The test is described as follows: Cell viability assay (CellTiter-Glo) in MV4;11 cells, alone or with gilteritinib. The test is classed as cell-based. The following applies: MV4;11 cells, three days, CellTiter-Glo, read-out: MV4.
[1] abbreviates: Homo sapiens, MOLM-13, 72 h, compound alone (without gilteritinib), read-out: MOLM-13 IC50.
Where [2] appears, read: Homo sapiens, MOLM-13, 72 h, with gilteritinib 20 nM, read-out: MOLM-13 IC50 gilteritinib.
Where [3] appears, read: Homo sapiens, MV4-11, 72 h, compound alone (without gilteritinib), 11 IC50.
Setting [4] is: Homo sapiens, MV4-11, 72 h, with gilteritinib 10 nM, 11 IC50 gilteritinib.
[5] abbreviates: Homo sapiens, MOLM-13, 72 h, compound with gilteritinib 20 nM, read-out: MOLM-13 IC50 gilteritinib.
The mark [6] stands for this setting: Homo sapiens, MV4-11, 72 h, compound with gilteritinib 10 nM, 11 IC50 gilteritinib.

As for `O=C1CCC(N2Cc3ccc(CCCCCCC(=O)N4CCC(c5ccc(Cl)cc5)CC4)cc3C2=O)C(=O)N1` (stereo not shown) [GS-116, 3-(6-(7-(4-(4-Chlorophenyl)piperidin-1-yl)-7-oxoheptyl)-1-oxoisoindolin-2-yl)piperidine-2,6-dione], the IC50 was 100 to 1000 nM in the test with MOLM-13 cells (Homo sapiens, 72 h, compound alone (without gilteritinib), read-out: MOLM-13 IC50); < 10 nM in the test on MOLM-13 cells (Homo sapiens, 72 h, with gilteritinib 20 nM, read-out: MOLM-13 IC50 gilteritinib); 10 to 100 nM with MV4;11 cells (Homo sapiens, 72 h, compound alone (without gilteritinib), 11 IC50); < 10 nM with MV4;11 cells (Homo sapiens, 72 h, with gilteritinib 10 nM, 11 IC50 gilteritinib).

Turning to `O=C1CCC(N2C(=O)c3ccc(NCCCCCC(=O)N4CCC(n5cc(-c6ccc7cccc(Br)c7n6)cn5)CC4)cc3C2=O)C(=O)N1` (stereo not shown) [GS-052, 5-((6-(4-(4-(8-Bromoquinolin-2-yl)-1H-pyrazol-1-yl)piperidin-1-yl)-6-oxohexyl)amino)-2-(2,6-dioxopiperidin-3-yl)isoindoline-1,3-dione], the IC50 in the test with MOLM-13 cells (setting [1]) is > 1000 nM; with MOLM-13 cells (setting [2]), < 10 nM; with MV4;11 cells (setting [3]), 100 to 1000 nM; in the test on MV4;11 cells (setting [4]), < 10 nM.

`O=C1CCC(N2C(=O)c3ccc(NCCCC4CC(n5cc(-c6cnc7ccc(N8CCNCC8)cc7n6)cn5)C4)cc3C2=O)C(=O)N1` (stereo not shown) [GS-174, 2-(2,6-Dioxopiperidin-3-yl)-5-((3-(3-(4-(7-(piperazin-1-yl)quinoxalin-2-yl)-1H-pyrazol-1-yl)cyclobutyl)propyl)amino)isoindoline-1,3-dione]: the IC50 with MOLM-13 cells (setting [1]) was > 1000 nM; with MOLM-13 cells (setting [2]), < 10 nM; in the test with MV4;11 cells (setting [3]) it was 100 to 1000 nM; in the test on MV4;11 cells (setting [4]), 10 to 100 nM.

Consider `O=C1CCC(N2Cc3c(Nc4ccnc(Nc5cccc(CN6CCC(n7cc(-c8cnc9ccccc9n8)cn7)CC6)c5)n4)cccc3C2=O)C(=O)N1` (stereo not shown) [GS-029, 3-(1-Oxo-4-((2-((3-((4-(4-(quinoxalin-2-yl)-1H-pyrazol-1-yl)piperidin-1-yl)methyl)phenyl)amino)pyrimidin-4-yl)amino)isoindolin-2-yl)piperidine-2,6-dione], for which the IC50 in the test on MOLM-13 cells (setting [1]), in the test with MOLM-13 cells (setting [2]), with MV4;11 cells (setting [3]) and in the test with MV4;11 cells (setting [4]) was > 1000 nM in each case.

Take `O=C1CCC(N2C(=O)c3ccc(NCCCCCC(=O)c4ccc(-n5cccn5)cc4)cc3C2=O)C(=O)N1` (stereo not shown) [GS-061, 5-((6-(4-(1H-Pyrazol-1-yl)phenyl)-6-oxohexyl)amino)-2-(2,6-dioxopiperidin-3-yl)isoindoline-1,3-dione]: the IC50 in the test on MOLM-13 cells (setting [1]) is > 1000 nM; in the test with MOLM-13 cells (setting [2]), 100 to 1000 nM; in the test with MV4;11 cells (setting [3]), > 1000 nM; in the test on MV4;11 cells (setting [4]), 100 to 1000 nM.

As for `O=C1CCC(N2C(=O)c3ccc(NC[C@H]4C[C@H](n5cc(N6CCC(O)CC6)c(C6CC6)n5)C4)cc3C2=O)C(=O)N1` (stereo partly drawn) [GS-452, 5-(((trans-3-(3-cyclopropyl-4-(4-hydroxypiperidin-1-yl)-1H-pyrazol-1-yl)cyclobutyl)methyl)amino)-2-(2,6-dioxopiperidin-3-yl)isoindoline-1,3-dione], the IC50 with MOLM-13 cells (setting [1]), in the test on MOLM-13 cells (setting [5]), in the test with MV4;11 cells (setting [3]) and in the test with MV4;11 cells (setting [6]) was > 1000 nM in each case.

Turning to `CN1CCN(c2ccnc(-c3cnn([C@H]4C[C@H](CNc5ccc6c(c5)C(=O)N(C5CCC(=O)NC5=O)C6=O)C4)c3)n2)CC1` (stereo partly drawn) [GS-424, 2-(2,6-dioxopiperidin-3-yl)-5-(((trans-3-(4-(4-(4-methylpiperazin-1-yl)pyrimidin-2-yl)-1H-pyrazol-1-yl)cyclobutyl)methyl)amino)isoindoline-1,3-dione], the IC50 with MOLM-13 cells (setting [1]) is 100 to 1000 nM; with MOLM-13 cells (setting [5]), 10 to 100 nM; in the test on MV4;11 cells (setting [3]), > 1000 nM; in the test on MV4;11 cells (setting [6]) it was > 1000 nM.

In the case of `O=C1CCC(N2C(=O)c3ccc(NCCC[C@H]4C[C@@H](n5cc(-c6cnc7ccc(C8CCOCC8)cc7n6)cn5)C4)cc3C2=O)C(=O)N1` (stereo partly drawn) [GS-182, 2-(2,6-Dioxopiperidin-3-yl)-5-((3-(cis-3-(4-(7-(tetrahydro-2H-pyran-4-yl)quinoxalin-2-yl)-1H-pyrazol-1-yl)cyclobutyl)propyl)amino)isoindoline-1,3-dione], the IC50 in the test with MOLM-13 cells (setting [1]) was 100 to 1000 nM; in the test on MOLM-13 cells (setting [2]), < 10 nM; in the test with MV4;11 cells (setting [3]), 100 to 1000 nM; in the test with MV4;11 cells (setting [4]), 10 to 100 nM.

As to `O=C(CN1CCC(N2CCN(c3ccccn3)CC2)C1)NCc1ccc2c(c1)C(=O)N(C1CCC(=O)NC1=O)C2=O` (stereo not shown) [GS-332, N-((2-(2,6-Dioxopiperidin-3-yl)-1,3-dioxoisoindolin-5-yl)methyl)-2-(3-(4-(pyridin-2-yl)piperazin-1-yl)pyrrolidin-1-yl)acetamide], the IC50 in the test with MOLM-13 cells (setting [1]), in the test with MOLM-13 cells (setting [2]), with MV4;11 cells (setting [3]) and with MV4;11 cells (setting [4]) was > 1000 nM in each case.

For the compound `O=C1CCC(N2Cc3c(NC4CCCC(Nc5ccnc(N6CCC(n7cc(-c8cnc9ccccc9n8)cn7)CC6)n5)C4)cccc3C2=O)C(=O)N1` (stereo not shown) [GS-119, 3-(1-Oxo-4-((3-((2-(4-(4-(quinoxalin-2-yl)-1H-pyrazol-1-yl)piperidin-1-yl)pyrimidin-4-yl)amino)cyclohexyl)amino)isoindolin-2-yl)piperidine-2,6-dione], the IC50 was > 1000 nM in the test with MOLM-13 cells (setting [1]), 100 to 1000 nM with MOLM-13 cells (setting [2]), > 1000 nM with MV4;11 cells (setting [3]) and 10 to 100 nM in the test with MV4;11 cells (setting [4]).

`O=C1CCC(N2Cc3cc(CNC(=O)c4cccc(N5CCC(n6cc(-c7cnc8ccccc8n7)cn6)CC5)c4)ccc3C2=O)C(=O)N1` (stereo not shown) [GS-476, N-((2-(2,6-dioxopiperidin-3-yl)-1-oxoisoindolin-5-yl)methyl)-3-(4-(4-(quinoxalin-2-yl)-1H-pyrazol-1-yl)piperidin-1-yl)benzamide]: the IC50 with MOLM-13 cells (setting [1]), in the test on MOLM-13 cells (setting [5]), with MV4;11 cells (setting [3]) and in the test with MV4;11 cells (setting [6]) was < 10 nM in each case.

As to `O=C1CCC(N2C(=O)c3ccc(NCCCCCC(=O)N4CCC(n5cc(C6CCCCC6)cn5)CC4)cc3C2=O)C(=O)N1` (stereo not shown) [GS-049, 5-((6-(4-(4-Cyclohexyl-1H-pyrazol-1-yl)piperidin-1-yl)-6-oxohexyl)amino)-2-(2,6-dioxopiperidin-3-yl)isoindoline-1,3-dione], the IC50 is 10 to 100 nM in the test with MOLM-13 cells (setting [1]), < 10 nM with MOLM-13 cells (setting [2]), 10 to 100 nM in the test with MV4;11 cells (setting [3]) and 10 to 100 nM in the test on MV4;11 cells (setting [4]).

As for `Cc1nn(CCCCCCNc2ccc3c(c2)C(=O)N(C2CCC(=O)NC2=O)C3=O)c(C)c1-c1nc2ccccc2nc1C(F)(F)F` (stereo not shown) [GS-540, 5-((6-(3,5-Dimethyl-4-(3-(trifluoromethyl)quinoxalin-2-yl)-1H-pyrazol-1-yl)hexyl)amino)-2-(2,6-dioxopiperidin-3-yl)isoindoline-1,3-dione], the IC50 in the test on MOLM-13 cells (setting [1]) is > 1000 nM; in the test with MOLM-13 cells (setting [5]), 10 to 100 nM; in the test with MV4;11 cells (setting [3]), > 1000 nM; in the test on MV4;11 cells (setting [6]) it was 10 to 100 nM.

Take `O=C1CCC(N2C(=O)c3ccc(NCCC[C@H]4C[C@H](n5cc(-c6cnc7ccc(N8CCNC9(CC9)C8)cc7n6)cn5)C4)cc3C2=O)C(=O)N1` (stereo partly drawn) [GS-220, 5-((3-(trans-3-(4-(7-(4,7-Diazaspiro[2.5]octan-7-yl)quinoxalin-2-yl)-1H-pyrazol-1-yl)cyclobutyl)propyl)amino)-2-(2,6-dioxopiperidin-3-yl)isoindoline-1,3-dione]: the IC50 is > 1000 nM in the test with MOLM-13 cells (setting [1]), 100 to 1000 nM with MOLM-13 cells (setting [2]), > 1000 nM in the test on MV4;11 cells (setting [3]) and 100 to 1000 nM with MV4;11 cells (setting [4]).

Turning to `O=C1CCC(N2Cc3ccc(CCCCCCn4cc(-c5cnc6ccccc6n5)cn4)cc3C2=O)C(=O)N1` (stereo not shown) [GS-106, 3-(1-Oxo-6-(6-(4-(quinoxalin-2-yl)-1H-pyrazol-1-yl)hexyl)isoindolin-2-yl)piperidine-2,6-dione], the IC50 in the test with MOLM-13 cells (setting [1]) is > 1000 nM; in the test on MOLM-13 cells (setting [2]), 10 to 100 nM; in the test on MV4;11 cells (setting [3]), 100 to 1000 nM; in the test with MV4;11 cells (setting [4]) it was 10 to 100 nM.

Consider `O=C1CCC(N2C(=O)c3ccc(NCC45CC(C(=O)N6CCC(n7cc(-c8cnc9ccccc9n8)cn7)CC6)(C4)C5)cc3C2=O)C(=O)N1` (stereo not shown) [GS-144, 2-(2,6-Dioxopiperidin-3-yl)-5-(((3-(4-(4-(quinoxalin-2-yl)-1H-pyrazol-1-yl)piperidine-1-carbonyl)bicyclo[1.1.1]pentan-1-yl)methyl)amino)isoindoline-1,3-dione], for which the IC50 in the test with MOLM-13 cells (setting [1]) is > 1000 nM; with MOLM-13 cells (setting [2]), 100 to 1000 nM; with MV4;11 cells (setting [3]), 100 to 1000 nM; in the test with MV4;11 cells (setting [4]), 10 to 100 nM.

With `CN(C)c1ccc(-c2cn([C@H]3C[C@H](CNc4ccc5c(c4)C(=O)N(C4CCC(=O)NC4=O)C5=O)C3)nc2C2CC2)nc1` (stereo partly drawn) [GS-276, 5-(((trans-3-(3-Cyclopropyl-4-(5-(dimethylamino)pyridin-2-yl)-1H-pyrazol-1-yl)cyclobutyl)methyl)amino)-2-(2,6-dioxopiperidin-3-yl)isoindoline-1,3-dione], the IC50 with MOLM-13 cells (setting [1]) is 100 to 1000 nM; with MOLM-13 cells (setting [2]), 10 to 100 nM; in the test with MV4;11 cells (setting [3]), 10 to 100 nM; in the test on MV4;11 cells (setting [4]), < 10 nM.

As to `O=C1CCC(N2C(=O)c3ccc(NCCC[C@H]4C[C@H](n5cc(-c6cnc7ccc(N8CCN(CC(F)(F)F)CC8)cc7n6)cn5)C4)cc3C2=O)C(=O)N1` (stereo partly drawn) [GS-593, 2-(2,6-Dioxopiperidin-3-yl)-5-((3-(trans-3-(4-(7-(4-(2,2,2-trifluoroethyl)piperazin-1-yl)quinoxalin-2-yl)-1H-pyrazol-1-yl)cyclobutyl)propyl)amino)isoindoline-1,3-dione], the IC50 was 100 to 1000 nM in the test on MOLM-13 cells (compound alone (without gilteritinib), read-out: MOLM-13 IC50) and < 10 nM in the test with MV4;11 cells (compound with gilteritinib 10 nM, 11 IC50 gilteritinib).
